In patent US20240316069A1, “METHODS OF TREATING MULTIPLE SCLEROSIS” (ASCENTAGE PHARMA (SUZHOU) CO., LTD., priority 2020, published 2024):
Entries after “also recorded” stand apart in the source; their conditions may differ.

How the values were obtained:
[1] = test system: peripheral blood mononuclear cell (PBMC); assay: Flow cytometry of PBMC lymphocyte subtypes in EAE model; assay type: in vivo, C57BL/6 mice; conditions: 100 mg/kg; day 21
[2] = test system: MOG35-55 induced experimental autoimmune encephalomyelitis (EAE) model in C57BL/6 mice; assay: Clinical scores in MOG35-55 induced EAE model; assay type: in vivo
[3] = test system: MOG35-55 induced experimental autoimmune encephalomyelitis (EAE) model in C57BL/6 mice; assay: Histopathologic assessment of spinal cord, LFB staining (demyelination) in EAE model; assay type: in vivo; conditions: for LFB staining score: day 21, spinal cord, scoring 0 to 4
Description: (§1) The mice were anesthetized with isoflurane and immunized with 300 μg MOG 35-55 peptide emulsified (1:1) in […] Freund's adjuvant with 600 μg Mycobacterium tuberculosis. Each mouse received 0.05 ml emulsion (s.c.) at four sites (back shoulder and tail root). The mice were further intraperitoneally injected with 250 μL pertussis toxin (1 μg/mL) at 0 h and 48 h post immunization. The day when MOG 35-55 peptide was injected was set as day 1.
(§2) Mice in Group 1 were treated with vehicle for 20 days (po, qd, from day 1-20). Mice in Group 2, Group 3 and Group 4 were treated with 100 mg/kg Compound 4 for 20 days (po, qd, from day 1-20), 14 days (po, qd, from day 7-20) and 7 days (po, qd, from day 14-20) respectively. FTY720 was used as positive control which was orally administered to mice in Group 5 for 20 days (qd, from day 1-20). The protocols and procedures involving the care and use of animals were approved by the Institutional Animal Care and Use Committee (IACUC) at Bioduro (Shanghai, China). The information of each group is as follows.
(§3) At the end of the study (day 21), all the animals were sacrificed by CO2, and the spinal cords were collected and fixed in 10% formalin for pathological analysis (H&E and LFB staining). The histopathological score was evaluated microscopically in a blinded manner.
The structure and morphology of spinal cord was evaluated by LFB staining using a scoring system from 0 to 4: 0 represents for no demyelination; 1, a small range of demyelination; 2, 2-3 small range of demyelination; 3, 1-2 large range of demyelination; 4, large-scale demyelination involves more than 20% of white matter areas.

[4] = test system: MOG35-55 induced experimental autoimmune encephalomyelitis (EAE) model in C57BL/6 mice; assay: Histopathologic assessment of spinal cord, H&E staining (inflammation) in EAE model; assay type: in vivo; conditions: for H&E staining score: day 21, spinal cord, scoring 0 to 4
Description: as §1, §2, §3
The inflammation of spinal cord was evaluated by H&E staining using a scoring system from 0 to 4: 0, no inflammatory cell infiltration; 1, inflammatory cell infiltration is limited to perivascular and […]; 2, small amount of inflammatory cell infiltration in the spinal cord; 3, medium number of inflammatory cell infiltration in the spinal cord; 4, large number of inflammatory cell infiltration in the spinal cord.

[5] = clinical application; cited from earlier work
[6] = 100 mg/kg po qd, 7 days (d14-d20)
[7] = 100 mg/kg po qd, 14 days (d7-d20)
[8] = 100 mg/kg po qd, 20 days (d1-d20)

O=C(NS(=O)(=O)c1ccc(NC[C@H]2COCCO2)c([N+](=O)[O-])c1)c1ccc(N2CCN(CC3=C(c4ccc(Cl)cc4)CC4(CCC4)CC3)CC2)cc1Oc1cnc2[nH]ccc2c1 [Compound 4, (S)-N-((4-(((1,4-dioxan-2-yl)methyl)amino)-3-nitrophenyl)sulfonyl)-2-((1H-pyrrolo[2,3-b]pyridin-5-yl)oxy)-4-(4-((6-(4-chlorophenyl)spiro[3.5]non-6-en-7-yl)methyl)piperazin-1-yl)benzamide]
number of B lymphocytes (CD45+CD3-B220+) in the PBMC [1]: significantly reduced | number of CD4+ T lymphocytes (CD45+CD3+CD4+) in the PBMC [1]: significantly reduced | number of CD8+ T lymphocytes (CD45+CD3+CD8+) in the PBMC [1]: significantly reduced | number of T lymphocytes (CD45+CD3+) in the PBMC [1]: significantly reduced | number of double negative T lymphocytes (CD45+CD3+CD4-CD8−) in the PBMC [1]: significantly reduced | number of leukocytes (CD45+) in the PBMC [1]: significantly reduced | clinical score ([2]; 100 mg/kg po qd, 14 days (d7-d20, Group 3), end of the study (day 21), scoring 0 to 5): 2.00±0.58 | clinical score of EAE (result in words) ([2]; 100 mg/kg po qd, either of the three regimens (20, 14, 7 days)): significantly reducing the clinical score of EAE; also recorded: reduced the clinical scores | LFB staining score [3, 6]: 1.30±0.37 | LFB staining score [3, 7]: 1.33±0.44 | LFB staining score [3, 8]: 1.80±0.29 | LFB staining scores (result in words) ([3]; FIG. 2 legend, regimen not stated): reduced the LFB staining scores | H&E staining score [4, 6]: 2.10±0.41 | H&E staining score [4, 7]: 1.11±0.33 | H&E staining score [4, 8]: 2.00±0.39 | H&E staining scores (result in words) ([4]; FIG. 3 legend, regimen not stated): reduced the H&E staining scores

CCCCCCCCc1ccc(CCC(N)(CO)CO)cc1.Cl [FTY720, reference compound]
symptoms of multiple sclerosis (clinical score, result in words) ([2]; 1 mpk po qd x 20 d (d1-d20), Group 5, entire experiment): no mice developing symptoms of multiple sclerosis | LFB staining score ([3]; 1 mpk po qd x 20 d (d1-d20)): 0 | cardiovascular toxicity [5]: obvious cardiovascular toxicity | H&E staining score ([4]; 1 mpk po qd x 20 d (d1-d20)): 0
